In US9120749B2, “Quinoline derivatives and MELK inhibitors containing the same” (ONCOTHERAPY SCIENCE, INC., priority 2010, dated 2015):
Counter-ions that a name gives are not always drawn. Like-named read-outs stand apart in the source and are kept apart here.

Experiments:
A549 cells = assay: Cell-based assay: anti-proliferative activity, Cell Counting Kit-8, 72 hours (A549); conditions: 72 hours
How it was run: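 A549 cells seeded in 96-well plates and exposed to candidate inhibitors for 72 hours. Growth measured with Cell Counting Kit-8; IC50 values calculated from the dose response.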

T47D cells = assay: Cell-based assay: anti-proliferative activity, Cell Counting Kit-8, 72 hours (T47D)
How it was run: (§1)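 Anti-MELK western blot on crude lysates → MELK status per line. Cells plated 96-well, compound exposure, CCK-8 readout at 72 h; IC50 calculated.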

22Rv1 cells = assay: Cell-based assay: anti-proliferative activity, Cell Counting Kit-8, 72 hours (22Rv1)
DU4475 cells = assay: Cell-based assay: anti-proliferative activity, Cell Counting Kit-8, 72 hours (DU4475)
MELK = MELK (Homo sapiens, UniProt Q14680); assay: Kinase assay: MELK activity, phosphorylation of FITC-labeled histone H3 peptide measured by IMAP fluorescence polarization; assay type: biochemical; conditions: read-out: IC50 (μM) (kinase assay)
Sequence of MELK (Q14680 whole entry, looked up): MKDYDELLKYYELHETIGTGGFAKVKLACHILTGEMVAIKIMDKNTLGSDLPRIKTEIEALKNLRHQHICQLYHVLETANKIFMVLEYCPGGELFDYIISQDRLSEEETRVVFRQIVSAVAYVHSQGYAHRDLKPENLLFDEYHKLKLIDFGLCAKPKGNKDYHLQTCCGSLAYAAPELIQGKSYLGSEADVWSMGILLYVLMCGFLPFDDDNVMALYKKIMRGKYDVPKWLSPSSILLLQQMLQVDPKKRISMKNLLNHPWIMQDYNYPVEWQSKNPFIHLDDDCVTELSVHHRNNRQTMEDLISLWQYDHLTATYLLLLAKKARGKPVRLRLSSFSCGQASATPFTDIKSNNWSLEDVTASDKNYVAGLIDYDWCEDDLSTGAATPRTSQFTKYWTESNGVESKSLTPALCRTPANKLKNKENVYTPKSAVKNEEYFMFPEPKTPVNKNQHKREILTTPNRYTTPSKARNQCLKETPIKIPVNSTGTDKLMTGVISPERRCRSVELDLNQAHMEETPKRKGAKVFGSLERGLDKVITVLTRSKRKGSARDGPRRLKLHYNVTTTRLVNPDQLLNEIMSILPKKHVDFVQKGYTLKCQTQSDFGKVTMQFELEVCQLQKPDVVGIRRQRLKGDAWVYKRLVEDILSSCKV
How it was run: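 Compounds, serially diluted from 12.5 mM DMSO stocks to 1% final DMSO, were tested with FITC-labeled histone H3 peptide as substrate. The reaction was stopped with progressive binding solution. Fluorescence polarization was read after 0.5 hour at room temperature.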

HT-1197 cells = assay: Cell-based assay: anti-proliferative activity, Cell Counting Kit-8, 72 hours (HT-1197, negative control without MELK expression); conditions: HT1197 cells (negative control, no MELK expression), 72 hours
How it was run: as §1

[1] = MELK kinase assay, IMAP fluorescence polarization, 50 micro-M ATP

| SMILES | IC50 (MELK; [1]) [µM] | IC50 (A549 cells; Homo sapiens, A549, 72 h) [µM] | IC50 (T47D cells; Homo sapiens, T47D, 72 h) [µM] | IC50 (22Rv1 cells; Homo sapiens, 22Rv1, 72 h) [µM] | IC50 (DU4475 cells; Homo sapiens, DU-4475, 72 h) [µM] | IC50 (HT-1197 cells; Homo sapiens, HT1197, 72 h) [µM] | IC50 (MELK) [µM] | also measured |
| --- | --- | --- | --- | --- | --- | --- | --- | --- |
| CN(C)CCN1CCC(Nc2c(C(=O)C3CC3)cnc3ccc(-c4cc(Cl)c(O)c(Cl)c4)cc23)CC1 [Example 820, cyclopropyl(6-(3,5-dichloro-4-hydroxyphenyl)-4-(1-(2-(dimethylamino)ethyl)piperidin-4-ylamino)quinolin-3-yl)methanone] | 0.0018 | – | – | – | – | – | – | IC50 (A549 cells): 0.46 µM; IC50 (T47D cells; 72 hours): 0.32 µM; IC50 (22Rv1 cells): 0.82 µM; IC50 (DU4475 cells): 0.15 µM; IC50 (HT-1197 cells): 2.9 µM |
| CN(C)CCN1CCC(Nc2c(C(=O)C3CC3)cnc3ccc(-c4cc(Cl)c(O)c(Cl)c4)cc23)CC1 [Example 819, cyclopropyl(6-(3,5-dichloro-4-hydroxyphenyl)-4-(1-(2-(dimethylamino)ethyl)piperidin-4-ylamino)quinolin-3-yl)methanone] | 0.0024 | 0.44 | 0.38 | 0.64 | 0.17 | 3.3 | – | – |
| CCC(=O)c1cnc2ccc(-c3cc(F)c(O)c(Cl)c3)cc2c1Nc1ccc(N2CCC(N(C)C)C2)nc1 (stereo not drawn) [Example 860, 1-(6-(3-chloro-5-fluoro-4-hydroxyphenyl)-4-((6-(3-(dimethylamino)pyrrolidin-1-yl)pyridin-3-yl)amino)quinolin-3-yl)propan-1-one] | 0.0062 | 0.29 | 0.14 | 0.45 | 0.24 | 3.6 | – | – |
| CC(=O)c1cnc2ccc(-c3cc(F)c(O)c(Cl)c3)cc2c1N[C@H]1CC[C@H](CN2CCC[C@H]2CO)CC1 [Example 844, 1-(6-(3-chloro-5-fluoro-4-hydroxyphenyl)-4-((1S,4r)-4-(((S)-2-(hydroxymethyl)pyrrolidin-1-yl)methyl)cyclohexylamino)quinolin-3-yl)ethanone] | 0.0046 | 0.18 | 0.067 | 0.18 | 0.092 | 3.3 | – | – |
| CC(=O)c1cnc2ccc(-c3cc(F)c(O)c(Cl)c3)cc2c1N[C@H]1CC[C@H](N(C)C)CC1 [Example 763, 1-{6-(3-Chloro-5-fluoro-4-hydroxyphenyl)-4-[trans-4-(dimethylamino)cyclohexylamino]quinolin-3-yl}ethanone] | – | 0.27 | 0.05 | 0.14 | 0.093 | 1.8 | 0.0087 | – |
| CCC(=O)c1cnc2ccc(-c3cc(F)c(O)c(Cl)c3)cc2c1Nc1ccc(CN(C)C)cc1 [Example 770, 1-(6-(3-chloro-5-fluoro-4-hydroxyphenyl)-4-((4-((dimethylamino)methyl)phenyl)amino)quinolin-3-yl)propan-1-one] | – | 0.11 | 0.074 | 0.17 | 0.062 | 0.84 | 0.015 | – |
| CN1CCN(c2ccc(Nc3c(C(=O)C4CC4)cnc4ccc(-c5cc(F)c(O)c(F)c5)cc34)cn2)CC1 [Example 778, cyclopropyl(6-(3,5-difluoro-4-hydroxyphenyl)-4-(6-(4-methylpiperazin-1-yl)pyridin-3-ylamino)quinolin-3-yl)methanone] | – | 0.17 | 0.1 | 0.48 | 0.22 | 2.6 | 0.021 | – |
| CC(=O)c1cnc2ccc(-c3cc(Cl)c(O)c(Cl)c3)cc2c1N[C@H]1CC[C@H](CN2CCCC2)CC1 [Example 767] | – | 0.16 | 0.12 | 0.15 | 0.083 | 24 | 0.0018 | – |
| CCN(C)C[C@H]1CC[C@H](Nc2c(C(C)=O)cnc3ccc(-c4cc(Cl)c(O)c(OC)c4)cc23)CC1 [Example 816, 1-(6-(3-chloro-4-hydroxy-5-methoxyphenyl)-4-(1R,4R)-4-((ethyl(methyl)amino)methyl)cyclohexylamino)quinolin-3-yl)ethanone hydrochloride] | 0.0027 | 0.25 | 0.28 | 0.44 | 0.36 | 7.3 | – | – |
| CC(=O)c1cnc2ccc(-c3cc(Cl)c(O)c(Cl)c3)cc2c1N[C@H]1CC[C@H](CN2CCCC(N)C2)CC1 (stereo partly drawn) [Example 810] | – | 0.12 | 0.034 | 0.056 | 0.044 | 2.3 | 0.0018 | – |
| COc1cc(-c2ccc3ncc(C(=O)C4CC4)c(NC4CCN(C5CCNC5)CC4)c3c2)cc(Cl)c1O (stereo not drawn) [Example 764, (6-(3-chloro-4-hydroxy-5-methoxyphenyl)-4-(1-(pyrrolidin-3-yl)piperidin-4-ylamino)quinolin-3-yl)(cyclopropyl)methanone] | – | 1.3 | 0.18 | 0.95 | 0.18 | 5.3 | 0.0029 | – |
| CC(=O)c1cnc2ccc(-c3cc(Cl)c(O)c(Cl)c3)cc2c1N[C@H]1CCC[C@H](CCN(C)C)C1 [Example 861, 1-(6-(3,5-dichloro-4-hydroxyphenyl)-4-(((1S,3R)-3-(2-(dimethylamino)ethyl)cyclohexyl)amino)quinolin-3-yl)ethanone hydrochloride] | 0.0032 | 0.25 | 0.22 | 0.24 | 0.19 | 1 | – | – |
| CCC(=O)c1cnc2ccc(-c3cc(Cl)c(O)c(OC)c3)cc2c1Nc1ccc(CN(C)C)cc1 [Example 769, 1-(6-(3-chloro-4-hydroxy-5-methoxyphenyl)-4-(4-((dimethylamino)methyl)phenylamino)quinolin-3-yl)propan-1-one] | – | 0.48 | 0.12 | 0.79 | 0.14 | 2.8 | 0.0049 | – |
| CC(=O)c1cnc2ccc(-c3cc(Cl)c(O)c(Cl)c3)cc2c1NC1CCN(CCN(C)C)CC1 [Example 823, 1-(6-(3,5-dichloro-4-hydroxyphenyl)-4-(1-(2-(dimethylamino)ethyl)piperidin-4-ylamino)quinolin-3-yl)ethanone] | 0.0027 | 0.45 | 0.21 | 0.32 | 0.16 | 2.6 | – | – |
| CC(=O)c1cnc2ccc(-c3cc(Cl)c(O)c(Cl)c3)cc2c1N[C@H]1CCC[C@@H](CN(C)C)C1 [Example 827, 1-(6-(3,5-dichloro-4-hydroxyphenyl)-4-((1S,3R)-3-((dimethylamino)methyl)cyclohexylamino)quinolin-3-yl)ethanone hydrochloride] | 0.0033 | 0.51 | 0.49 | 0.43 | 0.2 | 5.9 | – | – |
| CCC(=O)c1cnc2ccc(-c3cc(F)c(O)c(Cl)c3)cc2c1Nc1ccc(N2CCCC(N)C2)nc1 (stereo not drawn) [Example 825, 1-(4-(6-(3-aminopiperidin-1-yl)pyridin-3-ylamino)-6-(3-chloro-5-fluoro-4-hydroxyphenyl)quinolin-3-yl)propan-1-one] | 0.0018 | 0.017 | 0.01 | 0.016 | 0.018 | 0.069 | – | – |
| CCN(CC)C[C@H]1CC[C@H](Nc2c(C(C)=O)cnc3ccc(-c4cc(Cl)c(O)c(OC)c4)cc23)CC1 [Example 791, 1-(6-(3-chloro-4-hydroxy-5-methoxyphenyl)-4-(1R,4R)-4-((diethylamino)methyl)cyclohexylamino)quinolin-3-yl)ethanone hydrochloride] | – | 0.27 | 0.58 | 0.49 | 0.43 | 9.3 | 0.0031 | – |
| CC(=O)c1cnc2ccc(-c3cc(Cl)c(O)c(Cl)c3)cc2c1N[C@H]1CC[C@H](CN2CCC(N)C2)CC1 (stereo partly drawn) [Example 779, 1-(4-(1R,4R)-4-((3-aminopyrrolidin-1-yl)methyl)cyclohexylamino)-6-(3,5-dichloro-4-hydroxyphenyl)quinolin-3-yl)ethanone hydrochloride] | – | 1 | 0.14 | 0.23 | 0.13 | 10 | 0.0017 | – |
| CC(=O)c1c(C)nc2ccc(-c3cc(Cl)c(O)c(Cl)c3)cc2c1Nc1ccc(N2CCN(C)CC2)nc1 [Example 838, 1-(6-(3,5-dichloro-4-hydroxyphenyl)-2-methyl-4-(6-(4-methylpiperazin-1-yl)pyridin-3-ylamino)quinolin-3-yl)ethanone hydrochloride] | 0.097 | 11 | 17 | 7.2 | 14 | 25 | – | – |
| CC(=O)c1cnc2ccc(-c3cc(Cl)c(O)c(Cl)c3)cc2c1N[C@H]1CC[C@H](CN2CCCC2)CC1 [Example 768, 1-(6-(3,5-dichloro-4-hydroxyphenyl)-4-(trans-4-(pyrrolidin-1-ylmethyl)cyclohexylamino)quinolin-3-yl)ethanone hydrochloride] | – | – | – | – | – | – | – | IC50 (A549 cells; hydrochloride): 0.13 µM; IC50 (T47D cells; 72 hours, hydrochloride): 0.11 µM; IC50 (22Rv1 cells; hydrochloride): 0.11 µM; IC50 (DU4475 cells; hydrochloride): 0.07 µM; IC50 (MELK; hydrochloride): 0.0015 µM; IC50 (HT-1197 cells; hydrochloride): 28 µM |
